Source: article PMC5419573, “TRPV1 activation power can switch an action mode for its polypeptide ligands” (PLoS ONE, 2017)
Entries after “also recorded” stand apart in the source; their conditions may differ.

B1: DkTx: the bivalent toxin DkTx from tiger tarantula Ornithoctonus huwena (peptide, UniProt P0CH43 1-79, looked up)
Tau-theraphotoxin-Hs1a: DCAKEGEVCSWGKKCCDLDNFYCPMEFIPHCKKYKPYVPVTTNCAKEGEVCGWGSKCCHGLDCPLAFIPYCEKYRGRND
modifications: Tau-theraphotoxin-Hs1a
notes: the bivalent toxin DkTx from tiger tarantula Ornithoctonus huwena

How the values were obtained:
rat TRPV1 [1] = target: T1, rat TRPV1 (Rattus norvegicus, UniProt O35433); assay type: cell-based
T1 construct: expressed in transfected cells; host or cells: CHO cells (T-Rex System, Invitrogen; tetracycline-induced)
Method: (§1) All data were expressed as the mean ± standard deviation (SD). Significance of the effect was tested by ANOVA followed by Tukey’s post hoc analysis with the p-value of 0.05.

rat TRPV1 [2] = target: T1, rat TRPV1; assay type: cell-based; remark: listed apart in the source
Method: Recordings were made by a patch-clamp technique in whole-cell configuration using CHO cells stably expressing rat TRPV1. Whole-cell currents were recorded and digitized by Instru TECH LIH 8+8 data acquisition system (HEKA, Germany) at -80 mV holding voltage using EPC-8 (HEKA, Germany) amplifier, filtered at 5 kHz, sampled at 10kHz and stored. The external solution contained in mM: CaCl2 2.5, KCl 5, NaCl 143, D-glucose 18, HEPES 10, pH 7.35. Patch pipettes (2–5 MΩ resistance) were prepared by puller model P-97 (Sutter Instruments, USA). Pipette solution contained in mM: CsF 100, CsCl 40, NaCl 5, CaCl2 0.5, EGTA 5, HEPES 10, pH 7.2. Series resistance of about 20 MΩ was compensated by 70–80% and monitored during experiments. Drugs were applied using the ALA-VM8 (ALA Scientific Instruments, USA) perfusion system under computer control. All experiments were performed at 22°C.
as §1
The cell line stably expressing rat TRPV1 was used for electrophysiological and internal Ca^2+ fluorescent recordings. […] In Fluo-4-based intracellular calcium assay experiments, capsaicin or 2APB were used as channel agonists. […] To take the response rundown in account, the peptide effects were measured relative to the average value of the preceding and subsequent control responses (see S2 Fig).
Fig 1 Action of APHCs on capsaicin-induced TRPV1 currents. […] G, Current–voltage relationship for TRPV1 currents induced by 3 and 0.3 μM capsaicin in control (black and red) and in the presence of 100 nM APHC1 (blue and magenta). […] I, Summary of the polypeptides action (100 nM) on TRPV1 responses activated by different concentrations of capsaicin, n = 9 for all series.

rat TRPV1 [3] = target: T1, rat TRPV1; conditions: ref [8], [10], [11]; cited from earlier work
Excerpt: (§2) Since elaboration of TRPV1 pharmacology has obvious perspectives related to the potential treatment of pain and inflammation, many compounds affecting TRPV1 activation have been characterized. Some TRPV1 ligands have distinct effects on different modes of channel activation (heat, protons or chemical ligands).

human TRPV1 = conditions: cited from earlier work
Excerpt: as §2

monkey TRPV1 = conditions: ref [10], [11]; cited from earlier work
Excerpt: as §2

TRPV1 = test system: TRPV1; parameters: method as in PMID 17093448, PMID 20510930, PMID 26420335, PMID 24061123; conditions: ref [20], [21], [22], [39]; cited from earlier work
mice = conditions: ref [20], [21], [22]; cited from earlier work
Excerpt: Small lipophilic drugs can potentially reach their binding sites in different parts of a receptor, which complicates the study of mechanisms of action. Binding sites for membrane-impermeable peptide modulators should be localized at the outside surface of a channel protein. There are a few examples of polypeptides affecting TRPV1 channels.

T1 sequence (O35433 whole entry): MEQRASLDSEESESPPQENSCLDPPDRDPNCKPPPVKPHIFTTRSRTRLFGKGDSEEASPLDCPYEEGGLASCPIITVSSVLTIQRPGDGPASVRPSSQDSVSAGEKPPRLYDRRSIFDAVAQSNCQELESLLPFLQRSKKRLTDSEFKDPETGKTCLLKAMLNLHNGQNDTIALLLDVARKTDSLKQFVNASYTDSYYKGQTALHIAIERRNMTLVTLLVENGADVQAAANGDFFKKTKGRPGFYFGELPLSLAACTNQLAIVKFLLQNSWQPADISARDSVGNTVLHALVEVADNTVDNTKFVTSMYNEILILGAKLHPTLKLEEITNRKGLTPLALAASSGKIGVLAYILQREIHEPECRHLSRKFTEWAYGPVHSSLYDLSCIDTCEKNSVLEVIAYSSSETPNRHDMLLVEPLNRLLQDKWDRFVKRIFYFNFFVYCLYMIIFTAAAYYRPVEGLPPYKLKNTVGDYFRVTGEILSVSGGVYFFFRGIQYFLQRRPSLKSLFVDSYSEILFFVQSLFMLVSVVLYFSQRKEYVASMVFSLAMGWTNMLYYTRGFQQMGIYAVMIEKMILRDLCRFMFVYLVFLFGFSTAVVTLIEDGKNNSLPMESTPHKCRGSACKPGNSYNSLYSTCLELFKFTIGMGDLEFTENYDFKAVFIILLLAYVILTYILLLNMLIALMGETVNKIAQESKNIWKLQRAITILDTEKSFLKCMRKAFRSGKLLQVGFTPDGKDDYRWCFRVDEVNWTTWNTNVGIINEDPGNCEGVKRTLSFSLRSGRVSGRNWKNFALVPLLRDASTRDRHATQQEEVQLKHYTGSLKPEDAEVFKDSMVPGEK

Row | Molecule | effect on capsaicin response of rat TRPV1 (rat TRPV1 [3]) | effect on heat response of rat TRPV1 (rat TRPV1 [3]) | effect on proton response of rat TRPV1 (rat TRPV1 [3]) | reversal voltage of evoked currents (rat TRPV1 [2]) | other results
1 | Oc1cc2c(cc1O)CN(C(=S)NCCc1ccc(Cl)cc1)CCC2 [capsazepine] | heat and capsaicin responses are blocked at low capsazepine concentrations | heat and capsaicin responses are blocked at low capsazepine concentrations | ineffective as an antagonist of proton-induced response | – | block of calcium responses to capsaicin (rat TRPV1 [1]): fully blocked; also recorded: abolished; block of capsaicin-evoked currents (rat TRPV1 [2]): reversibly blocked; also recorded: abolished
2 | COc1cc(CNC(=O)CCCC/C=C/C(C)C)ccc1O [capsaicin] | – | – | – | close to zero | –
3 | NCCOB(c1ccccc1)c1ccccc1 [2APB, 2-aminoethoxydiphenyl borate] | – | – | – | close to zero | Ca2+ influx on agonist application (rat TRPV1 [1]): did not result in a detectable Ca^2+ influx
4 | CC(C)(C)c1ccc(CNC(=S)NCc2ccc(NS(C)(=O)=O)c(F)c2)cc1 [JYL-1421] | blocks responses to capsaicin | – | not to heat or protons | – | action profile of rat TRPV1 (block of capsaicin, not heat or protons) on human TRPV1 (human TRPV1; ref [10], [11]): could not be shown; action profile of rat TRPV1 (block of capsaicin, not heat or protons) on monkey TRPV1 (monkey TRPV1): could not be shown
5 | O=C(/C=C/c1ccc(C(F)(F)F)cc1N1CCCCC1)Nc1cccc2c1C[C@H](O)C2 [AMG8562, (R,E)-N-(2-hydroxy-2,3-dihydro-1H-inden-4-yl)-3-(2-(piperidin-1-yl)-4-(trifluoromethyl)phenyl)-acrylamide] | blocks capsaicin activation | does not affect heat activation | potentiates proton activation | – | effect on capsaicin activation of human TRPV1 (human TRPV1; ref [11]): blocks both heat and capsaicin activation; effect on heat activation of human TRPV1 (human TRPV1; ref [11]): blocks both heat and capsaicin activation; effect on proton activation of human TRPV1 (human TRPV1; ref [11]): partial antagonist of proton activation
6 | B1 | – | – | – | – | action on TRPV1 (TRPV1): Peptide agonists of TRPV1; effect when injected in mice (mice): cause pain behavior
